The source made the active and inactive calls. The rule behind the calls is not given here.
Key:
[1] = system: HEp-2; assay: Antiproliferative activity against human Hep2 cells after 48 hrs by neutral red assay; type: functional, cell-based; conditions: HEp-2, 48 h
[2] = system: Caco-2; assay: Antiproliferative activity against human Caco2 cells after 48 hrs by neutral red assay; type: functional, cell-based; conditions: Caco-2, 48 h
[3] = system: HepG2; assay: Antiproliferative activity against human HepG2 cells after 48 hrs by neutral red assay; type: functional, cell-based; conditions: HepG2, 48 h
[4] = system: Calf thymus DNA; assay: Inhibition of methyl green binding to calf thymus DNA incubated for 24 hrs in dark by spectrophotometric method; type: nucleic-acid assay, Bos taurus
[5] = target: T1, DNA topoisomerase 2-alpha (Homo sapiens, UniProt P11388); assay: Inhibition of human topoisomerase 2 using supercoiled pHOT1 DNA as substrate after 30 mins by agarose gel electrophoresis
[6] = system: Escherichia coli; assay: Induction of Escherichia coli bacteriophage lambda DNA intercalation assessed as inhibition of Sal 1/EcoR 1-mediated DNA cleavage after 2 hrs by agarose gel electrophoresis
[7] = target: T1, DNA topoisomerase 2-alpha; assay: Inhibition of human topoisomerase 2 assessed as cleavage complex formation at 25 to 50 uM using pBS-SK(+) DNA as substrate after 60 mins by agarose gel electrophoresis
[8] = system: Caco-2; assay: Upregulation of […] mRNA expression level in human Caco2 cells by qRT-PCR method; type: functional, cell-based
[9] = system: Caco-2; assay: Down regulation of Caspase 8 mRNA expression level in human Caco2 cells by qRT-PCR method; type: functional, cell-based
[10] = system: Caco-2; assay: Cell cycle arrest in human Caco2 cells assessed as accumulation at S phase at 0.5 uM after 24 hrs by propidium iodide staining based flow cytometry (reference value: 30.96%); type: functional
[11] = system: Caco-2; assay: Induction of apoptosis in human Caco2 cells assessed as late apoptotic cells at 0.5 uM after 24 hrs by Annexin V-FITC/propidium iodide staining based flow cytometry (reference value: 0.69%); type: functional
[12] = system: Caco-2; assay: Cell cycle arrest in human Caco2 cells assessed as accumulation at G2/M phase at 0.5 uM after 24 hrs by propidium iodide staining based flow cytometry (reference value: 15.19%); type: functional
[13] = system: Caco-2; assay: Induction of apoptosis in human Caco2 cells assessed as necrotic cells at 0.5 uM after 24 hrs by Annexin V-FITC/propidium iodide staining based flow cytometry (reference value: 1.59%); type: functional
[14] = target: T1, DNA topoisomerase 2-alpha; assay: Inhibition of recombinant human topoisomerase 2 assessed as reduction in relaxation of supercoiled pBS-SK(+) DNA after 30 mins by agarose gel electrophoresis
[15] = system: Caco-2; assay: Induction of apoptosis in human Caco2 cells assessed as viable cells at 0.5 uM after 24 hrs by Annexin V-FITC/propidium iodide staining based flow cytometry (reference value: 96.65%); type: functional; conditions: Caco-2, 24 h, read-out: Activity
[16] = system: Caco-2; assay: Down regulation of Bax mRNA expression level in human Caco2 cells by qRT-PCR method; type: functional, cell-based
[17] = system: Caco-2; assay: Down regulation of Bec1 mRNA expression level in human Caco2 cells by qRT-PCR method; type: functional, cell-based
[18] = system: Caco-2; assay: Cell cycle arrest in human Caco2 cells assessed as accumulation at G0/G1 phase at 0.5 uM after 24 hrs by propidium iodide staining based flow cytometry (reference value: 53.85%); type: functional
[19] = system: Caco-2; assay: Induction of apoptosis in human Caco2 cells assessed as early apoptotic cells at 0.5 uM after 24 hrs by Annexin V-FITC/propidium iodide staining based flow cytometry (reference value: 0.48%); type: functional
[20] = target: T1, DNA topoisomerase 2-alpha; assay: Inhibition of recombinant human topoisomerase 2 assessed as reduction in relaxation of supercoiled pBS-SK(+) DNA at 5 uM after 30 mins by agarose gel electrophoresis
[21] = target: T1, DNA topoisomerase 2-alpha; assay: Inhibition of recombinant human topoisomerase 2 assessed as reduction in relaxation of supercoiled pBS-SK(+) DNA at 10 to 50 uM after 30 mins by agarose gel electrophoresis
[22] = system: Caco-2; assay: Down regulation of Bcl-2 mRNA expression level in human Caco2 cells by qRT-PCR method; type: functional, cell-based
[23] = system: Caco-2; assay: Down regulation of Cyclin B mRNA expression level in human Caco2 cells by qRT-PCR method; type: functional, cell-based
[24] = system: Caco-2; assay: Induction of apoptosis in human Caco2 cells assessed as accumulation at pre-G1 phase at 0.5 uM after 24 hrs by Annexin V-FITC/propidium iodide staining based flow cytometry (reference value: 2.76%); type: functional
[25] = target: T1, DNA topoisomerase 2-alpha; assay: Inhibition of human topoisomerase 2 assessed as cleavage complex formation at 10 uM using pBS-SK(+) DNA as substrate after 60 mins by agarose gel electrophoresis
[26] = target: T1, DNA topoisomerase 2-alpha; assay: Inhibition of recombinant human topoisomerase 2 assessed as reduction in relaxation of supercoiled pBS-SK(+) DNA at 10 uM after 30 mins by agarose gel electrophoresis

T1 sequence (P11388 whole entry): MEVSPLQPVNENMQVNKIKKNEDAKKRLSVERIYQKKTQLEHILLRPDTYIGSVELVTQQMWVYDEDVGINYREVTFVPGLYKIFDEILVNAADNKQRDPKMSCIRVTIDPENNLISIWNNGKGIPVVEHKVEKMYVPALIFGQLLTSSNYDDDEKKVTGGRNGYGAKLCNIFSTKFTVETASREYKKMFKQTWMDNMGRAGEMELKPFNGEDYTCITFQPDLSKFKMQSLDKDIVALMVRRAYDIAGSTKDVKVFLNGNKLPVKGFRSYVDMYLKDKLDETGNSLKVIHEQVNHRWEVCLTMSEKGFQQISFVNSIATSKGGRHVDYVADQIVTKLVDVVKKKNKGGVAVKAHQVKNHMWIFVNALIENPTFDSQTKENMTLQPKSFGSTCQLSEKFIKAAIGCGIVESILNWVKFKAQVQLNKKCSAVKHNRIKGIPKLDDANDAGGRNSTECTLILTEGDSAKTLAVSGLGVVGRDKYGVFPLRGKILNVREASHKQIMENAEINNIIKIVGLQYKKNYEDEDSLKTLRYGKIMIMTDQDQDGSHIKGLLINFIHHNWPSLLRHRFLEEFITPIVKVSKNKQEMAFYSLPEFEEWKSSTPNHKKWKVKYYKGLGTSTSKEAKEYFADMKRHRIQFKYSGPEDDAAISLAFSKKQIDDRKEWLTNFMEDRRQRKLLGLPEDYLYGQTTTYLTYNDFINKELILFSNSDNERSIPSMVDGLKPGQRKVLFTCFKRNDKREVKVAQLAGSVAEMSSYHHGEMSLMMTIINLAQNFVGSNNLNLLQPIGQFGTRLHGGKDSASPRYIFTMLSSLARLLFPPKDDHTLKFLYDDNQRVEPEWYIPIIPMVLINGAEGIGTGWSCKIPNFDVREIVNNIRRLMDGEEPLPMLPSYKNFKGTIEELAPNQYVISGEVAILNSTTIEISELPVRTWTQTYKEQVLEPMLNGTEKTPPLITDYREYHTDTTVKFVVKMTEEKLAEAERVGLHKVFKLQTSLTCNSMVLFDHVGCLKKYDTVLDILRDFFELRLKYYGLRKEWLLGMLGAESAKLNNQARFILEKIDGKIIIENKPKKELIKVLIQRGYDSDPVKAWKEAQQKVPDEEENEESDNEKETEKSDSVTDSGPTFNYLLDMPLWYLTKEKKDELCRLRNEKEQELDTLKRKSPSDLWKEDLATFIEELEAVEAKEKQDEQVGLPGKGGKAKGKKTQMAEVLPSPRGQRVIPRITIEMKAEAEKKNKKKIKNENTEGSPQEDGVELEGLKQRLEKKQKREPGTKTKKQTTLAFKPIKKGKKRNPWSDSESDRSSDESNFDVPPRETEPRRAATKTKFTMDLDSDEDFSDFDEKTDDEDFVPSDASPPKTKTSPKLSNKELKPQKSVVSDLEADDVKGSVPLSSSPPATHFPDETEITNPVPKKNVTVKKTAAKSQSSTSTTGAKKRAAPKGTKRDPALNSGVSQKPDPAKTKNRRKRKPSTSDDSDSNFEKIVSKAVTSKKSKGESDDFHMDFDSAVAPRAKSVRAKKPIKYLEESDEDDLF

| SMILES | IC50 [1] | IC50 ([2]; read-out: IC50) | IC50 [3] | IC50 [4] | IC50 [5] | DNA intercalation activity (qualitative) [6] | other results |
| --- | --- | --- | --- | --- | --- | --- | --- |
| COC(=O)CSc1nnc2c3nncn3c3ccccc3n12 | 3110 nM | 6330 nM | 9390 nM | – | – | – | – |
| CCCNc1nc2ccccc2n2cnnc12 | 2330 nM | 3000 nM | 1080 nM | – | – | – | – |
| S=C(NNc1nc2ccccc2n2cnnc12)Nc1ccccc1 | 100 nM | 1290 nM | 640 nM | 34300 nM | 2980 nM | Active | – |
| O=C(NNc1nc2ccccc2n2cnnc12)Nc1ccccc1 | 560 nM | 1440 nM | 710 nM | 31300 nM | 1190 nM | – | – |
| O=C(CSc1nnc2c3nncn3c3ccccc3n12)Nc1ccc(F)cc1 | 500 nM | 800 nM | 760 nM | 43400 nM | 940 nM | Active | – |
| CCOc1nc2ccccc2n2cnnc12 | 4210 nM | 6410 nM | 9900 nM | – | – | – | – |
| CCNC(=S)NNc1nc2ccccc2n2cnnc12 | 2370 nM | 3460 nM | 1900 nM | – | 5380 nM | – | – |
| COc1cccc(NC(=O)CSc2nnc3c4nncn4c4ccccc4n23)c1 | 290 nM | 390 nM | 500 nM | 38600 nM | 850 nM | Active | inhibition [7]: inactive; Activity [8]: Active; Activity [9]: Active; Activity [10]: 15.19%; Activity [11]: 7.5%; Activity [12]: 40.58%; Activity [13]: 2.58%; inhibition [14]: Dose-dependent effect; viability at 0.5 µM [15]: 84.5%; Activity [16]: Active; Activity [17]: Active; Activity [18]: 44.23%; Activity [19]: 3.91%; inhibition [20]: inactive; inhibition [21]: Active; Activity [22]: Active; Activity [23]: Active; Activity [24]: 13.99% |
| c1ccc(CSc2nnc3c4nncn4c4ccccc4n23)cc1 | 5360 nM | 10500 nM | > 50000 nM | – | – | – | – |
| CSc1nnc2c3nncn3c3ccccc3n12 | 5790 nM | > 50000 nM | 22700 nM | – | – | – | – |
| O=C(NNc1nc2ccccc2n2cnnc12)NC1CCCCC1 | 320 nM | 970 nM | 2280 nM | 28400 nM | 1220 nM | – | – |
| CCOC(=O)CCCSc1nnc2c3nncn3c3ccccc3n12 | > 50000 nM | 14800 nM | 5800 nM | – | – | – | – |
| OCCNc1nc2ccccc2n2cnnc12 | 140 nM | 2660 nM | 3180 nM | – | – | – | – |
| CNc1nc2ccccc2n2cnnc12 | 3170 nM | 1480 nM | 880 nM | 48600 nM | 2090 nM | Active | – |
| c1ccc(CNc2nc3ccccc3n3cnnc23)cc1 | 40500 nM | 4510 nM | 2970 nM | – | – | – | – |
| CCOC(=O)CSc1nnc2c3nncn3c3ccccc3n12 | 360 nM | 1420 nM | 810 nM | 62600 nM | 2120 nM | – | – |
| CCCCNc1nc2ccccc2n2cnnc12 | 10 nM | 2250 nM | 830 nM | 49100 nM | 1940 nM | Active | – |
| COc1nc2ccccc2n2cnnc12 | 3950 nM | 8150 nM | 8050 nM | – | – | – | – |
| COc1cc(NS(C)(=O)=O)ccc1Nc1c2ccccc2nc2ccccc12 | – | – | – | – | – | – | inhibition [25]: Active; inhibition [26]: Active |
| Clc1cccc(Cl)c1/C=N/Nc1nc2ccccc2n2cnnc12 | 520 nM | 5700 nM | 60 nM | 40100 nM | 2970 nM | Active | – |
| c1ccc2c(c1)nc(NC1CCCCC1)c1nncn12 | 920 nM | 460 nM | 630 nM | 39400 nM | 680 nM | Active | – |
| COc1ccccc1/C=N/Nc1nc2ccccc2n2cnnc12 | 2210 nM | 3760 nM | 2440 nM | – | – | – | – |
| Sc1nnc2c3nncn3c3ccccc3n12 | 770 nM | 570 nM | 560 nM | 29800 nM | 1060 nM | Active | – |
| Clc1ccccc1/C=N/Nc1nc2ccccc2n2cnnc12 | 120 nM | 1150 nM | 9890 nM | 52300 nM | 1910 nM | Active | – |
| COc1cccc2c1C(=O)c1c(O)c3c(c(O)c1C2=O)C[C@@](O)(C(=O)CO)C[C@@H]3O[C@H]1C[C@H](N)[C@H](O)[C@H](C)O1 [DOXORUBICIN] | 510 nM | – | 620 nM | 30200 nM | 880 nM | Active | IC50 [2]: 730 nM |
